Calls of active or inactive are those of the source.
What was measured:
[1] = target: T1, Heat shock factor protein 1 (Mus musculus, UniProt P38532); assay: HSF1 potentiators in luciferase reporter cells, confirmation, cell-based, NIH3T3, luminescence, dose retest (AID 435004); assay type: functional;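 also: stress induced by proteasome inhibitor MG132 added 30 min after compound; luciferase reporter driven by HSF1 response element in NIH3T3 cells; actives raise luminescence as potentiators of the MG132 stress response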
T1 sequence (P38532 whole entry): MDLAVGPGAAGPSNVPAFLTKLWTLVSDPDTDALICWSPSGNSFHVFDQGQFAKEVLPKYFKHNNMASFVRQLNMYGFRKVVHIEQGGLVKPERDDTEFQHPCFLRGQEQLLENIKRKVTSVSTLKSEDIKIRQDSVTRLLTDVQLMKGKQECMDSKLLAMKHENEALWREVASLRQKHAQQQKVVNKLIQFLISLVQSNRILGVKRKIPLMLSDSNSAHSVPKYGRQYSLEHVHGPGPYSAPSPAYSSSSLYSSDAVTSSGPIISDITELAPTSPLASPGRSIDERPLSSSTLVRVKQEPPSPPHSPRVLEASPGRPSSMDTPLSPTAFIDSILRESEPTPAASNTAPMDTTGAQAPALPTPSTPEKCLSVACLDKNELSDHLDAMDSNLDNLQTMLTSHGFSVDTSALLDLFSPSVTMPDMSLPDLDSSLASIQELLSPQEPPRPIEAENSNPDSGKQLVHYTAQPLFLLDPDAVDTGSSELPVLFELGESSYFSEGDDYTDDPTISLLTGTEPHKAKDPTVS

[2] = HEp-2 cell cytotoxicity, dose response, cytotoxicity control for RSV inhibitor project, HTS (AID 2410); assay type: functional; conditions: human respiratory syncytial virus
[3] = cytotoxicity toward NIH3T3 fibroblasts, dose response, counter-screen, cell-based, ATP luminescence, mouse fibroblasts (AID 2010); assay type: functional;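 also: cells exposed to compound for about 90 hours before reading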
[4] = inhibitors of intracellular T. cruzi replication, confirmation, NIH3T3 host cells, beta-gal luminescence (AID 2044); assay type: functional, cell-based;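 also: intracellular parasites grown in NIH/3T3 mouse fibroblasts as host cells; luminescent beta-galactosidase reporter signal from transgenic T. cruzi replicating inside host cells; inhibitors lower the luminescence signal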
Paired box protein Pax-8 = Paired box protein Pax-8 (Homo sapiens, UniProt Q06710); assay: inhibitors of PAX8-driven TPO luciferase reporter, dose response, RMG-I cells, cherry-pick (AID 687027); assay type: functional, cell-based;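 also: luciferase reporter driven by Pax8 target thyroperoxidase promoter measured by SteadyGlo luminescence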
Large T antigen = Large T antigen (Simian virus 40, UniProt P03070); assay type: functional, Betapolyomavirus macacae;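 also: Confirmatory-stage PubChem screen for compounds that inhibit SV40 T antigen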
[5] = target: T2, Replicative DNA helicase DnaB (Mycobacterium tuberculosis, UniProt P9WMR3); assay: DnaB intein splicing inhibitors, dose response, biochemical, cell-free fluorescence (AID 449749); assay type: functional
T2 sequence (P9WMR3 whole entry): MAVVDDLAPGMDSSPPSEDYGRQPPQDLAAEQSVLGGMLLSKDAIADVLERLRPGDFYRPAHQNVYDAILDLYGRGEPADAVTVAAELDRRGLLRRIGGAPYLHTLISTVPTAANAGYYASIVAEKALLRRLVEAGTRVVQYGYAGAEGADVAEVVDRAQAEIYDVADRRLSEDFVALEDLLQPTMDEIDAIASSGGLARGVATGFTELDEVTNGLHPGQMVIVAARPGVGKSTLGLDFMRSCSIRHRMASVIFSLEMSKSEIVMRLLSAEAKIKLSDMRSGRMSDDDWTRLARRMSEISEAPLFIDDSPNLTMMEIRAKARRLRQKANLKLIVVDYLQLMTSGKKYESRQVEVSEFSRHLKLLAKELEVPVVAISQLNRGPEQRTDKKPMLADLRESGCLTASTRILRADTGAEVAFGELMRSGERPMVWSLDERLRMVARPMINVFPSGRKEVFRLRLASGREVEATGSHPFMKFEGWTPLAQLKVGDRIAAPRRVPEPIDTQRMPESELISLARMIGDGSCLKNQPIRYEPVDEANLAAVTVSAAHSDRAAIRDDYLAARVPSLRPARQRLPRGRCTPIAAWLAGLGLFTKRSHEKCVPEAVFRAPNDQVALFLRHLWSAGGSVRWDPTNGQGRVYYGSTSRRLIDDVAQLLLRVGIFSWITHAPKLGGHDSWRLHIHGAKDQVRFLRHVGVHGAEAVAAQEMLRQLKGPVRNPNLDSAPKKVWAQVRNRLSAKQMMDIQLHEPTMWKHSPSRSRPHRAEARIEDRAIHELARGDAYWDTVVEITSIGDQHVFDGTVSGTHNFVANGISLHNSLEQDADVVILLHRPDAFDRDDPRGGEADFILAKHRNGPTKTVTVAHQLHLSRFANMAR

Protein RecA = target: T3, Protein RecA (Mycobacterium tuberculosis, UniProt P9WHJ3); assay: Fluorescence Cell-Free Homogeneous Dose Retest to Identify Inhibitors of RecA-Intein Splicing Activity. [Related pubchem assays (depositor defined):AID2097, AID2223, AID489010, AID492950]; assay type: functional
T3 sequence (P9WHJ3 whole entry): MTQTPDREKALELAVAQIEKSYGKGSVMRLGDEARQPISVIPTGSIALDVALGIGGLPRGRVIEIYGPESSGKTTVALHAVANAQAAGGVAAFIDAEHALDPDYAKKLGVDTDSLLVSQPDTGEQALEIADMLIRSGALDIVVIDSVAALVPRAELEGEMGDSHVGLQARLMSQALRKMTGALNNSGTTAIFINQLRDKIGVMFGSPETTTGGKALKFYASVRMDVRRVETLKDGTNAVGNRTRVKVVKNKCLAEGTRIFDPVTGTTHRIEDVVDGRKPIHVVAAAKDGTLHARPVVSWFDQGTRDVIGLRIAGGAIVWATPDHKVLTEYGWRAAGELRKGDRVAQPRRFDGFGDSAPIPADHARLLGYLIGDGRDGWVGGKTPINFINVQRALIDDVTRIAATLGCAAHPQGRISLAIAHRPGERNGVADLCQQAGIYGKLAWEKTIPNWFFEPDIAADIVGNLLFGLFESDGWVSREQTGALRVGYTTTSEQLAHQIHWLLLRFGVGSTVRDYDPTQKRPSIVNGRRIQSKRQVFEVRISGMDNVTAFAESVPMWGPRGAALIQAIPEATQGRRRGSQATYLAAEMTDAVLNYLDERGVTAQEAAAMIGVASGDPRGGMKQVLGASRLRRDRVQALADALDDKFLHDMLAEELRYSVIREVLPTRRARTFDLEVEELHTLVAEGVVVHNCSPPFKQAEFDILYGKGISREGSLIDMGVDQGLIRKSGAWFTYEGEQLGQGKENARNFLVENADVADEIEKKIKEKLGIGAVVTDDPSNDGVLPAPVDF

INS1 = assay: beta cell apoptosis inhibitors, cytokine rescue, dose response, luminescence, retest (AID 449756); assay type: functional, cell-based; conditions: Rattus norvegicus;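 also: cell death triggered by IL-1 beta plus TNF-alpha plus IFN-gamma mixture; protective hits raise ATP signal compared with cytokine alone wells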
[6] = inhibitors of firefly luciferase expression or activity, dose response, H4 neuroglioma cells, luminescence (AID 1990); assay type: functional, cell-based
[7] = inhibitors of SNCA 5'UTR-driven reporter translation, confirmation, H4 neuroglioma cells, luminescence (AID 1988); assay type: functional, cell-based
[8] = Luminescence Cell-Based Dose Response HTS to Identify Inhibitors of 5'UTR Stem-Loop Driven Prion Protein mRNA Translation in H4 Neuroglioblastoma Cells. [Related pubchem assays: 1827 (Project Summary), 1813 (Primary HTS)]; assay type: functional
[9] = microbe, parasite or virus in culture; assay type: functional; conditions: Mycobacterium tuberculosis
[10] = Luminescence Cell-Based Dose Retest to Confirm Inhibitors of Cancer Stem Cells. [Related pubchem assays (depositor defined):AID2717, AID2721]; assay type: functional; conditions: Homo sapiens

Sequence of Paired box protein Pax-8 (Q06710 whole entry): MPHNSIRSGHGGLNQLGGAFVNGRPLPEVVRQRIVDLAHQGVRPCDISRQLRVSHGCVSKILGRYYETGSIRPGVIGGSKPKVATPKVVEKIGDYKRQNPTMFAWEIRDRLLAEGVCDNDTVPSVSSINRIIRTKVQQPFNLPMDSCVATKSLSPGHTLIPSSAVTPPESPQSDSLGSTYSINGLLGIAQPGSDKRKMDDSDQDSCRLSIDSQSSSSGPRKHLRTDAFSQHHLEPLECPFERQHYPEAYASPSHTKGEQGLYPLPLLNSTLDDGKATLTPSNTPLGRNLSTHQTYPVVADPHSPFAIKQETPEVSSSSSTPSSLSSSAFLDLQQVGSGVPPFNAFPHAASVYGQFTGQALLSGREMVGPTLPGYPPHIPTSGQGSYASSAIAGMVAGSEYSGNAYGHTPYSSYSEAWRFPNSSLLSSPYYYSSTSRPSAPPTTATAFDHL
Sequence of Large T antigen (P03070 whole entry): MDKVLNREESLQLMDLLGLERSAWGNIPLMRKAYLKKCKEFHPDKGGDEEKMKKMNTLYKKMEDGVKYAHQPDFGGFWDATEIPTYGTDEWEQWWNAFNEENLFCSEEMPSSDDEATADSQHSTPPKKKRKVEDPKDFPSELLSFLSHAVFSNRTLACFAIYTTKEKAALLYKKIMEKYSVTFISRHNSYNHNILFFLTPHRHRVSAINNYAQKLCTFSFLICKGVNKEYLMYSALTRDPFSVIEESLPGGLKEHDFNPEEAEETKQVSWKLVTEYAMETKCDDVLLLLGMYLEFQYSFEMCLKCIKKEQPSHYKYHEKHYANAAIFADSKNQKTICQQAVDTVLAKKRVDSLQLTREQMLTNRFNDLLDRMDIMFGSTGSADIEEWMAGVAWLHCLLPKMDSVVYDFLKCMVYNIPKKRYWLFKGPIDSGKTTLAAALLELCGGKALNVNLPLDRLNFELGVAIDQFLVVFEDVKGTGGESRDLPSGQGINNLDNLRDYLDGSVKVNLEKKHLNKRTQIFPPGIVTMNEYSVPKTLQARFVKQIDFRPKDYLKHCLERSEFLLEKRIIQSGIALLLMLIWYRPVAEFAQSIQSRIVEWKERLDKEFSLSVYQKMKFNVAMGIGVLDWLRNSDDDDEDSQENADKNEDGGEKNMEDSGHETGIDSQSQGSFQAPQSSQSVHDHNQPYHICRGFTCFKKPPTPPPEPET

## CCOc1cc(/C=N/NC(=O)Cn2nc([N+](=O)[O-])cc2C)cc(Br)c1OCc1ccccc1C
[1]
  EC50: > 260 µM (inactive)
[2]
  CC50: 8.17 µM (active)
[3]
  EC50: > 60 µM (not active)
[4]
  EC50: 2.32 µM (active)

## Cc1c(/C=N/NC(=O)c2ccc(Br)o2)cnn1C
[1]
  EC50: > 260 µM (inactive)

## C[C@H]1CCCCO[C@H](CN(C)Cc2ccc(Cl)c(Cl)c2)[C@@H](C)CN([C@@H](C)CO)C(=O)c2cc(NC(=O)Nc3ccc(F)cc3)ccc2O1
Paired box protein Pax-8
  AC50: 25.9 µM (active)

## Cc1sc2nc(CSc3cccc(C(F)(F)F)c3)nc(O)c2c1C
[1]
  EC50: > 260 µM (inactive)

## O=C(CN1C(=O)/C(=C\c2ccco2)SC1=S)Nc1ccc(O)cc1C(=O)O
Large T antigen
  IC50: 74.2 µM (active)

## O=C(Cc1cc(O)n[nH]1)N/N=C/c1c(F)cccc1Cl
[5]
  AC50: 1.87 µM (active)
Protein RecA
  EC50: 1.53 µM (active)

## COc1ccc(S(=O)(=O)Nc2ccc3c(c2)CC(=O)N([C@H](C)CO)C[C@H](C)[C@@H](CN(C)Cc2ccc(-c4ccccc4)cc2)O3)cc1
Paired box protein Pax-8
  AC50: 9.41 µM (active)

## CCn1c(-c2ccccc2)c(C(=O)CCl)c2ccccc21
[1]
  EC50: 7.71 µM (active)
[5]
  AC50: 3.27 µM (active)
INS1
  AC50: 7.82 µM (active)
[3]
  EC50: 4.12 µM (active)
Protein RecA
  EC50: 1.05 µM (active)
[4]
  EC50: 1.42 µM (active)

## CC(=O)c1ccc(-c2ccccc2[C@H]2[C@H]3C=CC[C@@H](C)[C@@H]3C(=O)N2Cc2ccccc2)cc1
[6]
  EC50: 30 µM (active)
[7]
  EC50: 22.4 µM (active)
[8]
  EC50: > 120 µM (not active)

## COc1ccc(-c2cn(Cc3ccc(C(=O)NCc4ccc(C)cc4)cc3)c(C(C)N)n2)cc1 (centres undefined)
[9]
  CC50: > 40 µM (active)

## COCCCNC(=O)CCn1c(=O)c2ccccc2n(CC(=O)Nc2cc(Cl)ccc2C)c1=O
[1]
  EC50: > 260 µM (inactive)

## COc1ccc(C2=Nn3c(nnc3-c3ccccn3)SC2)cc1OC
[6]
  EC50: 20.8 µM (active)
[7]
  EC50: 17.2 µM (active)
[8]
  EC50: > 120 µM (not active)

## FC(F)(F)c1cccc(OCc2nnc3n2CCC3)c1
[6]
  EC50: > 120 µM (not active)
[7]
  EC50: > 120 µM (not active)
[8]
  EC50: > 120 µM (not active)

## COc1ccc(C(=O)Nc2ccc(O)c3ccccc23)cc1OC
[5]
  AC50: 82 µM (active)
Protein RecA
  EC50: 8.4 µM (active)

## Oc1cc(CCl)nc(Cc2c(Cl)cccc2Cl)n1
[9]
  CC50: 21.7 µM (active)

## CC1(c2ccccc2)CC(C)(C)n2c(O)c(C3=NC(=S)NC3=O)c3cccc1c32 (centres undefined)
[6]
  EC50: 20.5 µM (active)
[7]
  EC50: 22.8 µM (active)
[8]
  EC50: 17.6 µM (active)

## Cc1ccc(C(=O)Oc2ccc([N+](=O)[O-])cc2)cc1S(=O)(=O)N1CCCCCC1
[5]
  AC50: 3.4 µM (active)
Protein RecA
  EC50: 4.99 µM (active)

## CCCCCn1c(Sc2ccccc2)nc2c1c(=O)[nH]c(=O)n2C
[6]
  EC50: 5.33 µM (active)
[7]
  EC50: 16.9 µM (active)
[8]
  EC50: 20.1 µM (active)

## CCC(=NNC(=O)c1ccc2c(c1)nc(C)n2CC)c1cc(F)ccc1O
INS1
  AC50: 2.32 µM (active)

## Cc1cc2oc3c(c(=O)c2cc1C)C(c1ccc(C(C)C)cc1)N(CCCN1CCOCC1)C3=O (centres undefined)
[1]
  EC50: > 260 µM (inactive)

## COc1ccccc1NC(=O)C1=C(C)N=C2CC(c3ccc(OC)c(OC)c3)CC(O)=C2C1c1coc2ccccc2c1=O (centres undefined)
[1]
  EC50: 34.5 µM (active)

## Cc1cc(C)nc(N/N=C2/CCCC/C2=C\c2ccccc2)n1
INS1
  AC50: 0.397 µM (active)

## C[C@@H]1CCCCO[C@H](CN(C)C)[C@H](C)CN([C@H](C)CO)C(=O)c2cc(NC(=O)Nc3cccc4ccccc34)ccc2O1
Paired box protein Pax-8
  AC50: 33.5 µM (active)

## N#CC1=C(N)Oc2[nH]nc(-c3ccncc3)c2C1c1ccsc1 (centres undefined)
[5]
  AC50: 13.4 µM (active)
Protein RecA
  EC50: 3.27 µM (active)

## N#CC1=C(N)Oc2[nH]nc(-c3cccs3)c2C1c1ccccc1C(=O)O (centres undefined)
[5]
  AC50: 2.69 µM (active)
Protein RecA
  EC50: 1.56 µM (active)

## Cc1cc(Oc2ccc(=O)n(C)n2)nc(SCc2ccccc2)n1
[6]
  EC50: > 120 µM (not active)
[7]
  EC50: 22.1 µM (active)
[8]
  EC50: 16.6 µM (active)

## C/C(=N\N1C(=O)c2ccccc2NC1c1ccco1)c1ccccc1O (centres undefined)
INS1
  AC50: 2.21 µM (active)
[3]
  EC50: 4.99 µM (active)
[4]
  EC50: 1.66 µM (active)

## Cc1cc(Cl)ccc1OCC(=O)Nc1ccccc1N1CCOCC1
[6]
  EC50: 18.2 µM (active)
[7]
  EC50: > 120 µM (not active)
[8]
  EC50: > 120 µM (not active)

## COCCn1c(=O)[nH]c2cc(C(=O)N3CCN(c4cccc(Cl)c4)CC3)ccc2c1=O
[1]
  EC50: > 260 µM (inactive)

## Cc1cc2oc(=O)c(CC(=O)NCCCN(C)C)c(C)c2c2occ(C(C)(C)C)c12
[6]
  EC50: > 120 µM (not active)
[7]
  EC50: 8.72 µM (active)
[10]
  AC50: 1.22 µM (active)
[3]
  EC50: 4.86 µM (active)
[4]
  EC50: 2.29 µM (active)
[8]
  EC50: 12.6 µM (active)

## CC(=O)Nc1nnc(SCC(=O)c2ccc(F)cc2)s1
[1]
  EC50: 67.4 µM (active)

## CC(=O)Nc1ccccc1NC(=O)C/C(C)=N/NC(=O)C(=O)N1CCCCC1
[5]
  AC50: 5.84 µM (active)
Protein RecA
  EC50: 0.891 µM (active)

## O=C(c1ccc(F)c(S(=O)(=O)N2CCOCC2)c1)N1CCN(c2ccc(F)cc2)CC1
INS1
  AC50: > 260 µM (inactive)

## COP(=O)(OC)c1nc(-c2cccc3ccccc23)oc1NCc1ccccc1
[1]
  EC50: > 260 µM (inactive)

## Fc1cc(F)cc(Nc2nc(Cl)nc(NC3CCCC3)n2)c1
[9]
  CC50: > 40 µM (active)

## COC(=O)C1C/C(=N\NS(=O)(=O)c2ccc(C)cc2)c2sccc2C1 (centres undefined)
[6]
  EC50: > 120 µM (not active)
[7]
  EC50: > 120 µM (not active)
[8]
  EC50: > 120 µM (not active)

## O=C(Nc1ccc(F)cc1F)N1CCCN(CCOc2ccccc2)CC1
INS1
  AC50: 13.3 µM (active)

Source: ChEMBL document CHEMBL1201862, “PubChem BioAssay data set” (2004)
